Test results reported in article PMC8496750, “Identification of the organic anion transporting polypeptides responsible for the hepatic uptake of the major metabolite of epyrifenacil, S‐3100‐CA, in mice” (Pharmacology Research & Perspectives, 2021).

Assays:
[1] = target: T1, human OATP1B1 (Homo sapiens, UniProt Q9Y6L6); assay: Uptake assay for radiolabeled substrates, human OATP1B1 expressing 293FT cells; format: in vitro ADME; conditions: for Ratio of uptake amount relative to the uptake into mock cells: 10‐min incubation
T1 construct: expressed in transfected cells; host or cells: 293FT cells
T1 sequence (Q9Y6L6 1-691): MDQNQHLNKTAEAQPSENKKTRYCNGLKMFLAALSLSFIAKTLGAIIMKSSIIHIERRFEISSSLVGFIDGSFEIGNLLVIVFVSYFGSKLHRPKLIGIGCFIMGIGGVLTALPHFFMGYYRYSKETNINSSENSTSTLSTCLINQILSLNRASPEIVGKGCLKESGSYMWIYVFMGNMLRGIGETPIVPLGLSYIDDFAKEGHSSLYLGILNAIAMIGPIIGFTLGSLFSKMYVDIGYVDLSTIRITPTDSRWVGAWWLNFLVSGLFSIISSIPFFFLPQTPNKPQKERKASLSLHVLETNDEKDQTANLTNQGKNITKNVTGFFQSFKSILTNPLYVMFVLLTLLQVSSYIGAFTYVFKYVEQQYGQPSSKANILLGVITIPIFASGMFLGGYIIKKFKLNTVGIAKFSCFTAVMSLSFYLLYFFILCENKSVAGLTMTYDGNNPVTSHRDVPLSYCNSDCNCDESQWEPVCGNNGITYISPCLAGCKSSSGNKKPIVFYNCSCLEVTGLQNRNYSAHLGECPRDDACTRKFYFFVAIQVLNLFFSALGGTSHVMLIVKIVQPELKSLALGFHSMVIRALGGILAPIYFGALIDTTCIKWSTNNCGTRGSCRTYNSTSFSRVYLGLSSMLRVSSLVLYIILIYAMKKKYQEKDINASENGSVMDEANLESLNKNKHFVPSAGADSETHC
Experimental: (§1) 293FT cells were purchased from Thermo Fisher Scientific, Inc.. The cells were grown in Dulbecco's modified Eagle medium (supplemented with 4.5 g/L glucose and 2 mM L‐glutamine) at 37°C, 5% CO2, and 95% humidity. The cells were passaged 3 times per week by harvesting cells using trypsin and plating at a density of 1.0 × 10^4 cells/cm^2 in a 10 cm cell culture plate for maintenance culture. The 293FT cells were detached using trypsin and re‐seeded at a density of 2.5 × 10^4 cells/cm^2 in BioCoat™ Collagen I 6‐well plates (Corning Inc.) for transfection and then treated with 1.2 μg of plasmid vector and 3.2 μl of Lipofectamine™ 2000 Transfection Reagent (Thermo Fisher Scientific, Inc.) according to the manufacturer's instructions. After a 3‐h treatment, the transfection medium was replaced with a fresh cell culture medium and incubated at 37°C with 95% humidity and 5% CO2 until ready for the assay.
(§2) Transport experiments were conducted approximately 24 h post‐transfection. The experiments were initiated by aspirating culture medium and addition of pre‐warmed radiolabeled substrate solution (final 1.0% of acetonitrile or 0.9% of ethanol in phosphate‐buffered saline (PBS[−])) to each well. After a 10‐min incubation, cells were washed twice with 1 ml of ice‐cold PBS(−) and lysed with 700 μl of 1.0 M NaOH for 3 h or more at room temperature. The lysate was transferred to a 1.5‐ml tube, and neutralized with 350 μl of 2.0 M HCl and 350 μl of 2.0% sodium dodecyl sulfate (SDS) solution. From the lysate, 1.0 ml was transferred to a vial containing 10 ml of Emulsifier Scintillator Plus to measure the radioactivity in the LSC. The protein concentration of the cell lysate was also measured using a Pierce™ BCA Protein Assay Kit (Thermo Fisher Scientific, Inc.), which was used to normalize, according to the cell number, the radioactivity in the cell lysate extract. The protein assay was performed in duplicate. Each sample type was assayed in triplicate wells, and each run was performed twice. When the difference in mean uptake between OATP expressing cells and mock cells was more than 2 times, the OATP was judged to be involved in transportation of the substrate. […] Each sample type was assayed in triplicate wells.

[2] = target: T2, mouse Oatp1a4 (Mus musculus, UniProt Q9EP96); assay: Uptake assay for radiolabeled substrates, mouse Oatp1a4 expressing 293FT cells; conditions: 10‐min incubation
T2 sequence (Q9EP96 1-670): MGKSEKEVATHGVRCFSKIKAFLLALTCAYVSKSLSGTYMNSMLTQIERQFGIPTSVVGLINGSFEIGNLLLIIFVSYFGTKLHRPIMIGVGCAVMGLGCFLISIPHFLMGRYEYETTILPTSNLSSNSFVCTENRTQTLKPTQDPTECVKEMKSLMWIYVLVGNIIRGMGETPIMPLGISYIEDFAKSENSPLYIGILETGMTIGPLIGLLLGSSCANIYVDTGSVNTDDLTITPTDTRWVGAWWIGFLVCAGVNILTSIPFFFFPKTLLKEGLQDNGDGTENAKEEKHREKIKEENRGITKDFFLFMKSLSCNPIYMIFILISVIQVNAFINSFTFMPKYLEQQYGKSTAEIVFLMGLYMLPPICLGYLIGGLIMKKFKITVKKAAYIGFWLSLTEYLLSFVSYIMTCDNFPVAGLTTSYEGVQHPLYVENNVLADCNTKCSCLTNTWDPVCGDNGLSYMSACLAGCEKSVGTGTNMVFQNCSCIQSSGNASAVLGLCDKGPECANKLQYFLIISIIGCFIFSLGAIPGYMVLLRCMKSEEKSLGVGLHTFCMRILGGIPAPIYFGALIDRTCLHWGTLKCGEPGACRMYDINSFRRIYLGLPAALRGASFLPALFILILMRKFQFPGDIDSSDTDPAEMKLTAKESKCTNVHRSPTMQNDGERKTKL
Experimental: as §1, §2

[3] = target: T3, mouse Oatp1b2 (Mus musculus, UniProt Q9JJL3); assay: Uptake assay for radiolabeled substrates, mouse Oatp1b2 expressing 293FT cells; conditions: 10‐min incubation
T3 sequence (Q9JJL3 1-689): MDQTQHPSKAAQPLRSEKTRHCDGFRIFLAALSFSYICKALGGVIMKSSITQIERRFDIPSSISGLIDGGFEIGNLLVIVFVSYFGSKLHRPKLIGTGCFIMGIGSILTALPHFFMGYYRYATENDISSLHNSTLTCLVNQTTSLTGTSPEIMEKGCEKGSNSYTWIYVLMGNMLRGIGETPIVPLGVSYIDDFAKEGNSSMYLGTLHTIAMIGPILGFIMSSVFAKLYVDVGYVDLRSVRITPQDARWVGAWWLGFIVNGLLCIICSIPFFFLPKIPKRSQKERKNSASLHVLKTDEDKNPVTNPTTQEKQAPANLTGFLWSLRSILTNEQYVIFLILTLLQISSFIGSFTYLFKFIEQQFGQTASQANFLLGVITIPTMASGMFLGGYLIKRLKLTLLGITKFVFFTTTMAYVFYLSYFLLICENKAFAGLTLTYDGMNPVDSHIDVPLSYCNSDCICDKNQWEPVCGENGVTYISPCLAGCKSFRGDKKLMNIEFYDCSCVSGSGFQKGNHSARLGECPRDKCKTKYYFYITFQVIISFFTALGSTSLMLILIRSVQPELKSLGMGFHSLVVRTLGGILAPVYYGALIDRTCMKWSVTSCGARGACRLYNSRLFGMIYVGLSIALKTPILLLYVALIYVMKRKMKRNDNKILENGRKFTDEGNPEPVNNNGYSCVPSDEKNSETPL
Experimental: as §1, §2

Compound	Uptake, times higher than in mock cells [1] [times]	Ratio of uptake amount relative to the uptake into mock cells ([1]; Run_1, mean of 3 replicates)	Ratio of uptake amount relative to the uptake into mock cells ([1]; Run_2, mean of 3 replicates)	Ratio of uptake amount relative to the uptake into mock cells ([2]; Run_1)	Ratio of uptake amount relative to the uptake into mock cells ([2]; Run_2)	Ratio of uptake amount relative to the uptake into mock cells ([3]; Run_1)	Ratio of uptake amount relative to the uptake into mock cells ([3]; Run_2)
C[C@]12CC[C@@H]3c4ccc(OS(=O)(=O)O)cc4CC[C@H]3[C@@H]1CCC2=O [E3S, Estrone 3‐sulfate]	> 50	69.9	81.9	1.1	1.1	23.8	19.7
Cn1c(C(F)(F)F)cc(=O)n(-c2cc(Oc3cccnc3OCC(=O)O)c(Cl)cc2F)c1=O [S‐3100‐CA]		5.7	6.2	8.1	4.2	11.7	6.2
C[C@]12CC[C@@H]3c4ccc(O)cc4CC[C@H]3[C@@H]1CC[C@@H]2O[C@@H]1O[C@H](C(=O)O)[C@@H](O)[C@H](O)[C@H]1O [E217βG, Estradiol 17β‐D‐glucuronide]	> 50	48.2	55.6	3.7	3.3	8.3	14.7
